Experimental data as given in patent US20090029856A1, “Hinokitiol As A Plant Pesticide” (priority 2007, published 2009).
≈ marks a conversion by molar mass, not a printed value. Where “and” joins values, the source holds several entries; their conditions need not be identical. Equal entries are not always repeated.

Columns and labels:
Colletotrichum acutatum = test: Spiral gradient dilution method, inhibition of mycelial growth; type: cell-based; conditions: PDA, 20° C., hinokitiol in acetone
Protocol: (§1) In this method, a potato dextrose agar (PDA) medium is plated with the test solution by means of a spiral plater, which applies the compound in a 2.5-log dilution in a continuous radial concentration gradient. Fungal inoculum in two replicates is then placed along radial lines across the gradient. […] EC50 values were calculated based on these measurements. The fungi evaluated were members of the following families Anamorphic Phyllachoraceae (Colletotrichum acutatum), Anamorphic Sclerotiniaceae (Botrytis cinerea), Mitosporic fungi (Verticillium dahlias; Microphomina sp.), and Oomycota (Phytophtora capsici). Hinokitiol (5 mg/mL) was dissolved in acetone, and acetone alone was also used as a control to check for non-specific inhibition.

Microphomina sp. = test: as above; type: cell-based; conditions: PDA, 20° C., hinokitiol in acetone
Protocol: as §1

Phytophtora capsici = test: as above; type: cell-based; conditions: PDA, 20° C., hinokitiol in acetone
Protocol: as §1

Verticillium dahliae = test: as above; type: cell-based; conditions: PDA, 20° C., hinokitiol in acetone
Protocol: as §1

[1] = system: Lactuca sativa (lettuce) seedlings; test: High-throughput 96-well post-emergence herbicide assay; type: in vivo
Protocol: A high-throughput 96-well assay was used to test the efficacy of hinokitiol as a post-emergence, non-selective herbicide. Seedlings of Lactuca sativa (lettuce) were grown in 96-well plates under continuous light. Hinokitiol was added on the one-week old seedlings at a 5×-dilution series from 1 to 0 mg/mL, and the minimum concentration needed for killing the seedling was recorded the next day.

[2] = system: annual bluegrass (Poa annua); test: Pot study, phytotoxicity and % weed control; type: in vivo
Protocol: (§2) A pot study was conducted to test the phytotoxicity of hinokitiol on both broadleaved and grass weed. Ten seeds of either chickweed (Stellaria media) or annual bluegrass (Poa annua) were planted in a plastic pot filled with potting mix. The 2-inch tall plants grown under growth lights (12-h light/12-h dark) at room temperature were sprayed with hinokitiol solutions containing 0.5, 1.0, 2.0, 3.0, 4.0 and 5.0 mg/mL hinokitiol in 50% ethanol. A solution of 50% ethanol without hinokitiol was used as a control treatment. The plants were kept at room temperature under growth lights and observed at two time points—4 and 14 days after treatment—for visual symptoms of phytotoxicity and % weed control.

[3] = system: chickweed (Stellaria media); test: Pot study, phytotoxicity and % weed control; type: in vivo
Protocol: as §2

Botrytis gray mold = Botrytis gray mold on pepper plants, formulation applied pre and post infection; type: in vivo
Protocol: Pepper plants (California Wonder Bell Pepper) were treated with a 3.2% Hinokitiol formulation containing propylene glycol, nonphytotoxic ethoxylate fatty esters; butanol, EDTA, UV protection agent, 1% of a 15% solution of sodium hydroxide and water 3 hours before and 24 hours after inoculation (pre and post infection, respectively). Hinokitiol concentration in pre-infection application was 1.0% v/v and for post-infection application was 2.0% v/v. Three plants were included per treatment in pre-infection applications, and 18 plants in post-infection treatments. The formulation employed contained 3.2% of active ingredient. Inoculation was performed with a conidial suspension of 1.8×10^6 conidia per ml of 75% PDB (Potato Dextrose Broth). Scale of evaluation was 0=no infection, 1=Small scattered lesions, 2=Scattered big lesions or small ones covering more than 50% of leaf surface, 3=Half plant dead, 4=75% of the plant dead, 5=Entire plant dead. Evaluation was performed 3 days after inoculation.

Botrytis cinerea (BOT) = test: Spiral plating method, growth inhibition; type: cell-based; conditions: B. cinerea
Protocol: (§3) The spiral plating method was used to deposit the fungicides on PDA and TSA plates with exponential logarithmic decrease of product concentration from the centre to the edge of the plate. The plates were left standing for four hours and inoculated with the fungus and bacteria. There were four repetitions of the same microorganism done per plate and there was one replica of each plate.
(§4) The plates were cultured for 3 days before measurements of growth were taken. The ‘distance of inhibition’ indicates the length of the zone with no growth, measured from center edge of the agar, the ‘colony width ratio’ indicates the ratio of the width of growth measured at the zero concentration and width at the highest concentration with growth.

[4] = system: Erwinia carotovora (ERWC); test: Spiral plating method, growth inhibition; type: cell-based; conditions: E. carotovora; average distance of inhibition / 28 mm × 100
Protocol: as §3, §4

Fusarium sp (FUSM) = test: Spiral plating method, growth inhibition; type: cell-based; conditions: average distance of inhibition / 28 mm × 100
Protocol: as §3, §4

[5] = system: Monilinia fructicola (MON); test: Spiral plating method, growth inhibition; type: cell-based; conditions: M. fructicola; average distance of inhibition / 28 mm × 100
Protocol: as §3, §4

[6] = system: Pseudomonas viridilivida (PSVI); test: Spiral plating method, growth inhibition; type: cell-based; conditions: P. viridilivida
Protocol: as §3, §4

[7] = system: Xanthomonas campestris (X-CAM); test: Spiral plating method, growth inhibition; type: cell-based; conditions: average distance of inhibition / 28 mm × 100
Protocol: as §3, §4

[8] = 0.5 mg/mL in 50% ethanol, 4 DAYS
[9] = 0.5 mg/mL in 50% ethanol, 14 DAYS
[10] = 1.0 mg/mL in 50% ethanol, 4 DAYS
[11] = 1.0 mg/mL in 50% ethanol, 14 DAYS
[12] = 2.0 mg/mL in 50% ethanol, 4 DAYS
[13] = 2.0 mg/mL in 50% ethanol, 14 DAYS
[14] = 3.0 mg/mL in 50% ethanol, 4 DAYS
[15] = 3.0 mg/mL in 50% ethanol, 14 DAYS
[16] = 4.0 mg/mL in 50% ethanol, 4 DAYS
[17] = 4.0 mg/mL in 50% ethanol, 14 DAYS
[18] = 5.0 mg/mL in 50% ethanol, 4 DAYS
[19] = 5.0 mg/mL in 50% ethanol, 14 DAYS

CC(C)c1cccc(=O)c(O)c1 [Hinokitiol, 4-isopropyl tropolone]
EC50 (Colletotrichum acutatum): 12 µg/mL (≈ 73.1 µM) | EC50 (Microphomina sp.): 11 µg/mL (≈ 67 µM) | EC50 (Phytophtora capsici): 12 µg/mL (≈ 73.1 µM) | EC50 (Verticillium dahliae): 11 µg/mL (≈ 67 µM) | effect on lettuce seedlings ([1]; concentration of 8 mg/L): not harmful to the plant | minimum concentration needed for killing the seedling ([1]; one-week old lettuce seedlings, recorded the next day): 40 mg/L | Poa annua (% control) [2, 8]: 0% | Poa annua (% control) [2, 9]: 0% | Poa annua (% control) [2, 10]: 1% | Poa annua (% control) [2, 11]: 0% | Poa annua (% control) [2, 12]: 2% | Poa annua (% control) [2, 13]: 5% | Poa annua (% control) [2, 14]: 10% | Poa annua (% control) [2, 15]: 15% | Poa annua (% control) [2, 16]: 30% | Poa annua (% control) [2, 17]: 25% | Poa annua (% control) [2, 18]: 50% | Poa annua (% control) [2, 19]: 50% | Stellaria media (% control) [3, 8]: 1% | Stellaria media (% control) [3, 9]: 0% | Stellaria media (% control) [3, 10]: 2% | Stellaria media (% control) [3, 11]: 10% | Stellaria media (% control) [3, 12]: 10% | Stellaria media (% control) [3, 13]: 55% | Stellaria media (% control) [3, 14]: 95% | Stellaria media (% control) [3, 15]: 100% | Stellaria media (% control) [3, 16]: 98% | Stellaria media (% control) [3, 17]: 100% | Stellaria media (% control) [3, 18]: 100% | Stellaria media (% control) [3, 19]: 100% | number of pepper plants at scale of infection 2 (Botrytis gray mold; 0.64 mg/ml, 24 hr after inoculation, of 18 plants per rep): 12 and 7 | number of pepper plants at scale of infection 4 (Botrytis gray mold; 0.64 mg/ml, 24 hr after inoculation, of 18 plants per rep, 4 = 75% of the plant dead): 1 and 2 | intensity of disease (scale of severity 0-5), single plants (Botrytis gray mold; 3.2% hinokitiol formulation at 1.0% v/v (0.32 mg/ml), applied 3 hr before inoculation, evaluated 3 days after inoculation, 1 = small scattered lesions, 5 = entire plant dead): 1 | visible symptoms of disease or phytotoxicity on pepper plants (Botrytis gray mold; hinokitiol formulation at 1% (0.32 mg/ml) dilution): did not show any visible syptoms of disease or phytotocicity | inhibition of growth (Botrytis cinerea (BOT)): did not inhibit | % inhibition of growth [4]: 62% | % inhibition of growth (Fusarium sp (FUSM)): 32% | % inhibition of growth [5]: 48% | inhibition of growth [6]: did not inhibit | % inhibition of growth [7]: 83%
